Source: article PMC9769694, “Discovery of Two Inhibitors of the Type IV Pilus Assembly ATPase PilB as Potential Antivirulence Compounds” (Microbiology Spectrum, 2022)

Legend:
CtPilBΔN = molecular target: T1, CtPilBΔN (Chloracidobacterium thermophilum, UniProt G2LDI3); assay: ATPase assay of truncated CtPilB variant without N-terminal MshEN domain; type: biochemical; details: read-out: IC50, ATPase activity of PilBΔN
T1 sequence (G2LDI3 140-614): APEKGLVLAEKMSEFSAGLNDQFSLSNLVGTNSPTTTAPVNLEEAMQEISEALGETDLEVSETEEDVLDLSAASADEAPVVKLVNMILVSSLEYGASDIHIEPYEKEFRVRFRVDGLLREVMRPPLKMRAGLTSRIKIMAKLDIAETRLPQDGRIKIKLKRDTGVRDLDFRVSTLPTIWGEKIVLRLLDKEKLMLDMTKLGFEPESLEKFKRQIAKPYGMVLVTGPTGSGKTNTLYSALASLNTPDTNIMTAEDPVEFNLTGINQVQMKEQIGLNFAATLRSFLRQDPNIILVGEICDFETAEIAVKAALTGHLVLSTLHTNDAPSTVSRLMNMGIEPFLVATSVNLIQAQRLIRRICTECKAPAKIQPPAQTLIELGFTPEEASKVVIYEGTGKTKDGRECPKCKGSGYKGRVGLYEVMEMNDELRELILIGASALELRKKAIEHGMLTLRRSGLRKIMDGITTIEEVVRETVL
Source text: CtPilB, like its orthologue MshE ([35]), has a MshEN-like cyclic di-GMP-binding domain at its N terminus and a well-conserved ATPase domain at its C terminus ([28], [29]). To determine which domain the inhibitors interact with, we tested the effects of benserazide and levodopa on the ATPase activity of a truncated CtPilB variant (PilBΔN) without the N-terminal MshEN domain ([29]). […] These values are similar to those against the full-length PilB (Fig. 2).
The full-length CtPilB and the CtPilBΔN variant (with the first 139 residues at the N terminus truncated) were purified as preciously described ([29]). The HTS was conducted using 384-well microplates (Greiner, cat no. 781101). Each microwell for the screen contained a 15-μL reaction mixture consisting of 75 nM CtPilB, 0.5 mM ATP, 20 μM of a library compound, and 2% DMSO in activity buffer (50 mM N-tris(hydroxymethyl)methyl-3-aminopropanesulfonic acid [TAPS], 50 mM Tris, 75 mM KCl, 50 mM sodium acetate, 5 mM MgCl2, 50 mM ZnCl2 [pH 8.7]) ([29]). Reaction mixtures were incubated at 55°C for 10 min and transferred to ice for 5 min to stop the enzymatic reaction. […] Absorbance at 620 nm (A620) was measured using a SpectraMax M5 microplate reader at room temperature. […]
The effects of inhibitors on the ATPase activity of CtPilB and CtPilBΔN and the binding of MANT-ATP were determined as described previously ([28], [29]). […]

M. xanthus T4P assembly = assay: T4P assembly, dot blot of T4P fractions with anti-pilin antibodies; type: cell-based, Myxococcus xanthus; details: strain YZ603 (ΔdifE), 16-128 μM tested, P < 0.05
Method: Alternatively, they may inhibit other processes such as pilin production or T4P retraction. […] Briefly, pre-existing pili were sheared off and separated from cells by vortexing and centrifugation. These shaved or unpiliated cells were allowed to assemble new T4P in the presence or absence of a PilB inhibitor. T4P fractions were prepared and analyzed by dot blotting with anti-pilin antibodies as a measure of T4P levels ([28]). […] As such, the T4P fraction represents the level of T4P assembly without complication from T4P retraction ([28]).
Piliation levels of the M. xanthus strain YZ603 (ΔdifE) ([52]) were analyzed by dot-blotting with anti-PilA antibodies as previously described ([28]). This study included a fraction representing the “Basal” T4P levels for a given treatment. This is the T4P fraction from sheared cells mixed with an inhibitor and pre-equilibrated on ice for 10 min before the cells were incubated at 32°C for 20 min to allow T4P regrowth or assembly. These fractions were used as controls and subtracted as the baseline in data analysis.

[1] = test system: A. nosocomialis biofilm formation; assay: Biofilm formation, microplate assay with crystal violet staining; type: cell-based, Acinetobacter nosocomialis; details: WT, P < 0.05
Source text: The inhibitors may thus interact with conserved features of the PilB ATPase family. A. nosocomialis PilB ([19]), whose N terminus is not similar to the MshEN domain (data not shown), shares ~53% identity and ~74% homology with MxPilB and MC3PilB in the ATPase domain (Fig. S1). We analyzed whether benserazide and levodopa could impact the T4P-powered twitching motility ([19], [44]) of A. nosocomialis (Fig. 7), an opportunistic pathogen in the Acinetobacter calcoaceticus-Acinetobacter baumannii (ACB) complex ([45]). As shown in Fig. 7A and B and Fig. S7, benserazide and levodopa impede the twitching motility of WT A. nosocomialis in a concentration-dependent manner.
FIG 7 Benserazide and levodopa inhibit Acinetobacter nosocomialis twitching motility and biofilm formation. […] (C and D) Biofilms formed by A. nosocomialis with (C) benserazide or (D) levodopa were analyzed by a microplate assay with crystal violet (CV) staining. […]
The A. nosocomialis wild-type M2 strain and an isogenic pilA deletion (ΔpilA) mutant ([19], [46]) were used in this study. […] The twitching motility of the M2 strain of A. nosocomialis was analyzed with 1% crystal violet (CV) for staining, and twitching areas were used as measures of motility as previously described ([46]). […] A. nosocomialis biofilm formation was analyzed using microplates and CV staining as previously described ([53], [54]). […]

SMILES	IC50 (CtPilBΔN) [µM]	concentration giving statistically significant decrease in T4P assembly (M. xanthus T4P assembly) [µM]	concentration significantly reducing biofilm formation [1] [µM]
NC(CO)C(=O)NNCc1ccc(O)c(O)c1O (stereo not drawn) [benserazide]	2.2 ± 0.4	≥ 16	≥ 32
N[C@@H](Cc1ccc(O)c(O)c1)C(=O)O [levodopa, 3,4-dihydroxyphenylalanine]	76.2 ± 9.2	≥ 32	≥ 32
